Experimental data published in patent US5441949A, “Carbapenem antibiotic compounds” (Zeneca Limited, priority 1992, dated 1995).
Structures can show the parent of a compound that is named as a salt.

Columns and labels:
[1] = system: P. morganii I + 001; assay: antibacterial activity in vitro, agar-dilution MIC, Diagnostic Sensitivity Test, inoculum 10^4 CFU/spot; format: cell-based; conditions: Morganella morganii
[2] = system: B. fragilis AMP S; assay: as above; format: cell-based; conditions: Bacteroides fragilis
[3] = system: E. coli DCO; assay: microbe, parasite or virus in culture; conditions: Escherichia coli
Source text: The antibacterial activity is described in terms of the minimum inhibitory concentration (MIC) determined by the agar-dilution technique with an inoculum size of 10^4 CFU/spot.

[4] = system: S. aureus Oxford; assay: antibacterial activity in vitro, agar-dilution MIC, Diagnostic Sensitivity Test, inoculum 10^4 CFU/spot; format: cell-based; conditions: Staphylococcus aureus
[5] = system: Enterobacter cloacae P99-; assay: as above; format: cell-based

Work on `C[C@@H](O)[C@H]1C(=O)N2C(C(=O)O)=C(S[C@@H]3CN[C@H](C(=O)Nc4cc(C(=O)O)c5ncccc5c4)C3)[C@H](C)[C@H]12` [Example 1, (1R,5S,6S,8R,2'S,4'S) 2-(2-(8-Carboxyquinol-6-ylcarbamoyl)pyrrolidin-4-ylthio)-6-(1-hydroxyethyl)-1-methylcarbapenem-3-carboxylic Acid Disodium Salt] yielded an MIC [1] of 0.03 µg/mL, an MIC [2] of 0.5 µg/mL and an MIC [3] of 0.03 µg/mL. The MIC [4] was 0.13 µg/mL and the MIC [5] was 0.03 µg/mL.
